Measurements from patent publication US4550186A, “Binuclear copper (II) carboxylates formed from amine-carboxyboranes” (Duke University, priority 1983, dated 1985).

Legend:
[1] = test system: sn-Glycerol-3-phosphate Acyl Transferase; assay: In vitro liver enzyme study: sn-glycerol-3-phosphate acyl transferase; format: biochemical, mouse; conditions: in vitro CF1 liver
Procedure: (§1) In vitro enzymatic studies were determined using 10% homogenates of CF1 male mouse liver with 50-200 μM of test drugs. In vivo enzymatic studies were determined using 10% homogenates of liver from CF1 male mice obtained after administering the agents for 16 days at a dose ranging from 2.5-20 mg/kg/day intraperitoneally. The liver homogenates for both in vitro and in vivo studies were prepared in 0.25M sucrose and 0.001M (ethylenedinitrilo)tetraacetic acid. Acetyl coenzyme A synthetase and adenosine triphosphate dependent citrate lyase activities were determined spectrophotometrically at 540 nm as the hydroxylamate of acetyl coenzyme A formed after 30 min at 37° C. Mitochondrial citrate exchange was determined by the procedure of Robinson et al [Eur. J. Biochem., 216, 63 (1970)] using ^14 C-sodium bicarbonate (41 mCi/mmol) incorporated into mitochondrial ^14 C-citrate after isolating rat mitochondria (9000 g×10 min) from the homogenates. The exchanges of the ^14 C-citrate were determined after incubating the mitochondrial fraction which was loaded with labeled citrate and test drugs for 10 min. Then the radioactivity was measured in the mitochondrial and supernantant fractions in scintillation fluid and expressed as a percentage. Cholesterol side chain oxidation was determined by the method of Kritchevsky and Tepper [Artherosclerosis, 18, 93 (1973)] using (26-^14 C) cholesterol (50 mCi/mmol) and mitochondria isolated from rat liver homogenates. […] Fatty acid synthetase activity was determined by the method of Brady et al [J. Biol. Chem., 235, 3093 (1960)] using [2-^14 C] malonyl-coenzyme A (37.5 mCi/mmol) which was incorporated into newly synthesized fatty acids that were extracted with ether and counted. Acyl transferase activity was determined with glycerol-3phosphate [L-2-^3 H(N)] […] HCl and counted. Phosphatidate phosphohydrolase activity was measured as the inorganic phosphate released after 30 min from phosphatidic acid by the method of Mavis et al [J. Lipid Res., 19, 467 (1978)]. […]

[2] = test system: CF1 male mice on atherogenic diet; assay: Testing in atherogenic mice; format: in vivo, mouse; conditions: 12 days
Procedure: CF1 male mice (~25 g) were placed on a commercial diet (the U.S. Biochemical Corporation Basel Atherogenic Test Diet) which contained butterfat (400 g), celufil (cellulose; 60 g), cholesterol (53 g), choline dihydrogen citrate (4 g), salt mixture oil (Wesson; 40 g), sodium cholate (20 g), sucrose (223 g), vitamin free casein (200 g) and total vitamin supplement for 10 days. After the cholesterol and triglyceride levels were assayed and observed to be elevated, the mice were administered test drugs at 10 mg/kg/day intraperitoneally for an additional 12-day period. Serum cholesterol and triglyceride levels were measured after 12 days of administration of the drugs.

[3] = test system: sn-Glycerol 3-phosphate Acyl Transferase; assay: In vivo liver enzyme study: sn-glycerol 3-phosphate acyl transferase; parameters: species or system mouse; conditions: CF1 liver after 16 days i.p.
Procedure: as §1

[4] = test system: deoxyribonucleic acid polymerase; assay: In vivo nuclear deoxyribonucleic acid polymerase activity; parameters: species or system mouse
Procedure: CF1 male mice (~30 g) were implanted with 2×10^6 Ehrlich ascites tumor cells, intraperitoneally on Day 0. Compound I was suspended by homogenation in 0.05% polysorbate.80-water and administered intraperitoneally at 10 and 20 mg/kg for 9 days to determine its effectiveness for inhibition of tumor growth. Mice were sacrificed on Day 10, and the ascites fluid was collected from the peritoneal cavity. The volume and ascrit (packed cell volume) were determined for each animal and the percent inhibition of tumor growth was calculated. For the metabolic studies, mice were treated on Days 8 and 9 with 10 mg/kg of Compound I, intraperitoneally. The animal was sacrificed on Day 10 and the ascites fluid harvested. The in vitro metabolic studies were performed at […] final concentration of Compound I.
In vitro and in vivo nuclear deoxyribonucleic acid polymerase activity was determined on isolated Ehrlich ascites cell nuclei. The incubation was that described by Sawada et al [Can. Res., 34, 3341 (1974)] except that [methyl-^3 H] deoxythymidine triphosphate (82.4 Ci/mmol) was used. The acid insoluble nucleic acid was collected on GF/F filters and counted. Nuclear ribonucleic acid polymerase activities were determined on enzymes isolated from nuclei. […] The acid insoluble ribonucleic acid was collected on nitrocellulose filters and counted.

With “{Cu[(CH3)3 N.BH2 CO2 ]2.(CH3)3 N.BH2 COOH} [Compound I]” the “sn-Glycerol-3-phosphate Acyl Transferase” value ([1]; 50 μM) was 108 ± 6 Percent Control, the “sn-Glycerol-3-phosphate Acyl Transferase” value ([1]; 100 μM) was 92 ± 8 Percent Control and the “sn-Glycerol-3-phosphate Acyl Transferase” value ([1]; 200 μM) was 89 ± 6 Percent Control. The “serum cholesterol level after drug administration” value ([2]; hyperlipidemic induced mice (354 mg % before)) was 148 mg %, the “serum cholesterol levels reduced” value ([2]; hyperlipidemic induced mice, 10 mg/kg/day i.p.) was 59% and the “serum triglyceride levels lowered” value ([2]; hyperlipidemic mice, 10 mg/kg/day i.p.) was 67%. For the same substance, the “sn-Glycerol 3-phosphate Acyl Transferase” value ([3]; 2.5 mg/kg) was 95 ± 6% of control, the “sn-Glycerol 3-phosphate Acyl Transferase” value ([3]; 5.0 mg/kg) was 95 ± 7% of control and the “sn-Glycerol 3-phosphate Acyl Transferase” value ([3]; 10 mg/kg) was 119 ± 7% of control. The “Nuclear deoxyribonucleic acid polymerase activity reduced” value [4] was 62% and the “Deoxyribonucleic acid polymerase activity” value ([4]; 10 mg/kg/day I.P. on Days 8 and 9) was 38 ± 5 % Control.
